Experimental data from PMC10224004, “Modulation of Distribution and Diffusion through the Lipophilic Membrane with Cyclodextrins Exemplified by a Model Pyridinecarboxamide Derivative” (Pharmaceutics, 2023).
Like-named read-outs stand apart in the source and are kept apart here.

Columns and labels:
[1] = Shake-flask solubility in 1-octanol and dissolution thermodynamics; format: physicochemical; conditions: for Molar solubility S2 × 10^1 in 1-Octanol: value = S2 × 10^1
Experimental: The solubility of the investigated drugs in 1-octanol and n-hexane was determined by the shake-flask technique. To this end, the glass vials containing the solutions with the excess amount of the compound were placed in an air thermostat and stirred at a predetermined temperature for no less than 24 h (equilibrium state). After this, the suspensions were left for 5 h or more to precipitate the undissolved drug and centrifuged (Biofuge pico, Thermo Electron LED GmbH, Langenselbold, Germany) at a predetermined temperature during 20 min (10,000 rpm). The aliquots of the clear solutions were taken and examined via a spectrophotometer (Cary-50 Varian, Palo Alto, CA, USA, Software Version 3.00 (339)). The molar concentrations of the compounds in the solvents were calculated using calibration curves at the appropriate wavelength characteristic for each substance. The experimental results were reported as an average of at least three replicated experiments with an accuracy of 2–4%. In order to evaluate the thermodynamic parameters of the IPN dissolution in 1-octanol and n-hexane, the molar solubility ( S2 ) was recalculated to the mole fraction ( X2 ) by the equation:(1) X2=M2S2/S2(M1−M2)+1000ρ, where M1 and M2 are the molar masses of IPN and organic solvent, respectively, and ρ (g∙cm^−3) is the density of the pure solvents. The linear functions describing the temperature dependences of the solubility within the temperature interval from 293.2 ± 0.5 K to 313.2 ± 0.5 K for both organic solvents were derived:(2) lnX2=A+B/T
The apparent solution enthalpies ΔHsol0 were determined by the van’t Hoff equation:(3) ∂(lnX2)/∂T=ΔHsol0/RT^2
The apparent dissolution Gibbs energies ( ΔGsol ) and entropies ( ΔSsol ) were calculated at a standard temperature of 298.2 K and 310.2 K:(4) ΔGsol298.2/310.2=−RT(lnX2298.2/310.2) (5) ΔGsol298.2/310.2=ΔHsol0−TΔSsol298.2/310.2 where R is the universal gas constant.

[2] = Membrane permeability in Franz diffusion cell; format: in vitro ADME; conditions: for Papp at 5 h: pH 7.4, PermeaPad barrier, read-out: permeability coefficient (Papp)
Experimental: Membrane permeability coefficients of the studied drugs were measured in the Franz diffusion cell of vertical type (PermeGear, Inc., Hellertown, PA, USA) with 7 mL/1 mL volumes of the donor and acceptor solutions through the reverse dialysis set up. The PermeaPad barrier (PHABIOC, Fritz-Souchon-Str.27 32339 Espelkamp Germany, www.innome.de) (0.785 cm^2 effective surface area) was mounted between the donor and acceptor chambers of the diffusion cell. The temperature was maintained at 310.2 ± 0.5 K throughout the experiment. Samples of 0.5 mL were withdrawn each 30 min from the acceptor solution and replaced with an equal amount of fresh buffer. Permeability experiments lasted over five hours in all cases. The solutions concentrations were analyzed via spectrophotometer (Spectramax 190; Molecular Devices Corporation, San Jose, CA, USA) in 96-well UV black plates (Costar) at a wavelength of 264 nm and 266 nm for IPN and INZ/iNAM, respectively. The dependences of the amount of the permeated drug over the surface area (dQ/A) on time (t) were plotted and flux (J) across the membrane was calculated by the equation:(11) J=dQ/A×dt The apparent permeability coefficients (Papp) were determined by normalizing the flux measured over the concentration of the drug in the donor compartment (C0) by the equation:(12) Papp=J/C0 Each permeability experiment was carried out in triplicate.
Similarly to the distribution, the permeability coefficients were obtained in the absence (for IPN, and iNAM) and in the presence of cyclodextrins (HP-β-CD and M-β-CD) (for IPN only) in the donor solution. The concentrations of cyclodextrins were 0.0115 M, 0.025 M and 0.035 M. The permeability coefficient for INZ through the PermeaPad barrier was determined in our previous investigation and taken in the present study for the sake of comparison.

[3] = Association constant of IPN with cyclodextrin by phase-distribution method; format: binding; conditions: 310.2 K
Experimental: The association constants (KC) of IPN with cyclodextrins were determined by a partition coefficient (phase-distribution) method. Possible partition of CDs to the 1-octanol or n-hexane phases was assumed to be negligible since both cyclodextrins used in this study have high aqueous solubility (>600 mg∙mL^−1). The KC values of the complexes between the drug and each CD were calculated assuming that in the presence of CD the distribution coefficient ( DappOrg/(buf+CD) ) is defined as:(8) DappOrg/(buf+CD)=C2Org/C2buf(drug)+C2buf(drug•CD) where C2buf(drug) and C2buf(drug•CD) are the concentrations of the drug and drug complex with CD in the aqueous phase. The following equation was applied:(9) DappOrg/(buf+CD)/DappOrg/buf=1+KC⋅CCD where DappOrg/buf and DappOrg/(buf+CD) are the distribution coefficients of a compound in the absence and in the presence of CD in the aqueous phase, respectively. Similarly to the phase-solubility method of the stability constants determination, but bearing in mind an opposite trends in solubility and organic solvent/water partition (the higher the solubility, the lower the distribution coefficient), the following dependence was plotted to obtain the association constant (KC) and the stoichiometric ratio of the complex (α):(10) log(DappOrg/buf−DappOrg/(buf+CD)/DappOrg/buf)=log(KC)+α⋅log(CCD) where CCD is the concentration of cyclodextrin in the aqueous phase of the distribution system and the y-intercept produces log(KC).
To approve the validity of the distribution results interpretation we used the distribution coefficients at different CDs concentrations for the determination of the association constants of IPN with the studied cyclodextrins. As shown by Másson et al. for hydrophilic drugs (a case of IPN), this method can be successfully used for the simultaneous determination of the association constant with cyclodextrins and partition coefficient. The association constants (KC) of IPN with HP-β-CD and M-β-CD were determined according to the phase-distribution method using Equations (8)–(10). To this end, the plots of the dependences (Equation (10)) were constructed and are illustrated in Figure 6.

[4] = from 1-Octanol/Buffer pH 7.4 System
[5] = from n-hexane/buffer pH 7.4 system

## CC(C)NNC(=O)c1ccncc1 [IPN, N′-isopropyl isonicotinic hydrazide]
[1]; 1-octanol, 298.2 K
  TΔSsol298.2: 3.42 ± 0.096 kcal/mol
  ΔGsol298.2: 1.48 ± 0.024 kcal/mol
[1]; 1-octanol, 298.2 K (first value of cell)
  ζHsol: 58.9%
[1]; 1-octanol, 298.2 K and 310.2 K
  ΔHsol298.2/310.2: 4.9 ± 0.048 kcal/mol
[1]; 1-octanol, 310.2 K
  TΔSsol310.2: 3.56 ± 0.096 kcal/mol
  ΔGsol310.2: 1.34 ± 0.024 kcal/mol
[1]; 1-octanol, 310.2 K (second value of cell)
  ζHsol: 57.9%
[1]; 310.2 K, ratio of molar solubilities
  solubility higher in 1-octanol than in n-hexane: 338 fold
[1]; T 293.2 K
  Molar solubility S2 × 10^1 in 1-Octanol: 4.44 ± 0.09 × 10^1 (M)
[1]; T 298.2 K
  Molar solubility S2 × 10^1 in 1-Octanol: 5.06 ± 0.06 × 10^1 (M)
[1]; T 303.2 K
  Molar solubility S2 × 10^1 in 1-Octanol: 5.73 ± 0.11 × 10^1 (M)
[1]; T 310.2 K
  Molar solubility S2 × 10^1 in 1-Octanol: 6.86 ± 0.18 × 10^1 (M)
[2]; PermeaPad barrier, 310.2 K, pH 7.4, printed value = J × 10^4, cyclodextrin in donor solution as in the label
  steady penetrate rate - flux J∙10^4: 1.25 ∙10^4 (μM∙cm‐2∙s‐1)
[2]; PermeaPad barrier, 310.2 K, pH 7.4, value = Papp × 10^5, cyclodextrin in donor solution as in the label
  Papp∙10^5: 2.03±0.05 ∙10^5 (cm∙s‐1)
[2]; 310.2 K, without cyclodextrins
  Papp at 5 h: 20.3 ×10⁻⁶ cm/s
[2]; enhancement in the presence of M-β-CD in donor solution (highest value reached)
  Papp at 5 h: ≤ 28.7 ×10⁻⁶ cm/s
[2]; slight decrease upon growing HP-β-CD concentration in donor solution (lowest value reached)
  Papp at 5 h: ≥ 17.8 ×10⁻⁶ cm/s
[3]; [4]
  Association constant KC of IPN complex with HP-β-CD: 0.899 ± 0.022
  Association constant KC of IPN complex with M-β-CD: 0.479 ± 0.109
  α (parameter indicating the complex stoichiometry), IPN with HP-β-CD: 1.004 ± 0.014
  α (parameter indicating the complex stoichiometry), IPN with M-β-CD: 1.000 ± 0.065
[3]; [5]
  Association constant KC of IPN complex with HP-β-CD: 1.536 ± 0.128
  Association constant KC of IPN complex with M-β-CD: 1.311 ± 0.241
  α (parameter indicating the complex stoichiometry), IPN with HP-β-CD: 1.087 ± 0.076
  α (parameter indicating the complex stoichiometry), IPN with M-β-CD: 1.057 ± 0.143
